From patent US20240287082A1, “NEW BENZODIAZEPINE DERIVATIVES AS GABA A GAMMA1 PAM” (Hoffmann-La Roche Inc., priority 2021, published 2024)
Like-named read-outs stand apart in the source and are kept apart here.

Tests used:
[1] = target: human GABAA α2β2γ1 receptor (Homo sapiens (Human), UniProt P47869+Q8N1C3); assay: Radioligand binding assay, competition for [3H]RO7239181, γ1-containing GABAA subtype α2β2γ1; details: for γ2/γ1 Selectivity Ratio: Ki α1β3γ2 (nM)/Ki α2β2γ1 (nM); for LogSel: Log[Ki α1β3γ2 (nM)/Ki α2β2γ1 (nM)]
Procedure: (§1) The affinity of compounds at GABAA γ1 subunit-containing receptors was measured by competition for [^3H]RO7239181 (67.3 Ci/mmol; Roche) binding to membranes from HEK293F cells (ThermoFisher R^79007) expressing human (transiently transfected) receptors of composition α5β2γ1, α2β2γ1, α1β2γ1.
(§2) Harvested pellets from HEK293F cells expressing the different GABAA receptor subtypes were resuspended in Mannitol Buffer pH 7.2-7.4 (Mannitol 0.29M, Triethylamine 10 mM, Acetic acid 10 mM, EDTA 1 mM plus protease inhibitors (20 tablets Complete, Roche Diagnostics Cat. No. 05 056 489 001 per liter)), washed two times and then resuspended at 1:10 to 1:15 dilution in the same buffer. Cell disruption was performed by stirring the suspension in a Parr vessel #4637 at 435 psi for 15 minutes, and then the suspensions were centrifuged at 1000×g for 15 minutes at 4° C. (Beckman Avanti J-HC: rotor JS-4.2). The supernatant (S1) was transferred in a 21 Schott flask and the pellet (P1) was resuspended with Mannitol Buffer up to 175 ml. The resuspended pellet was transferred into a 250 ml Corning centrifugal beaker and centrifuged at 1500×g for 10 minutes at 4° C. (Beckman Avanti J-HC: rotor JS-4.2). The supernatant (S1) was then transferred in the 21 Schott flask and the pellet was discarded. The supernatants (S1) were centrifuged in 500 ml Beckman polypropylene centrifugal beaker at 15 000×g for 30 minutes at 4° C. (Beckman Avanti J-20 XP: rotor JLA-10.500). The pellet (P2) was resuspended with Mannitol Buffer 1:1 and frozen at −80° C. The supernatant (S2) was centrifuged in 100 ml Beckman polypropylene centrifugal tubes at 48000×g for 50 minutes at 4° C. (Beckman Avanti J-20 XP: rotor JA-18). The supernatant (S3) was discarded and the pellet (P3) was resuspended with 1:1 Mannitol Buffer. The P2 and P3 protein concentration was determined with the BIORAD Standard assay method with bovine serum albumin as standard and measured on the NANO-Drop 1000. The membrane suspension was aliquots (500 μl per tube) and stored at −80° C. until required.
(§3) Membrane homogenates were resuspended and polytronised (Polytron PT1200E Kinematica AG) in Potassium Phosphate 10 mM, KCl 100 mM binding buffer at pH 7.4 to a final assay concentration determined with a previous experiment.
(§4) Assays were incubated to equilibrium for 1 hour at 4° C. and then, membranes were filtered onto unifilter (96-well white microplate with bonded GF/C filters preincubated 20-50 minutes in 0.3% Polyethylenimine) with a Filtermate 196 harvester (Packard BioScience) and washed 4 times with cold Potassium Phosphate 10 mM pH 7.4, KCl 100 mM binding buffer. After anhydrousing, filter-retained radioactivity was detected by liquid scintillation counting. Ki values were calculated using Excel-Fit (Microsoft) and are the means of two determinations.

[2] = target: human GABAA α1β2γ1 receptor (Homo sapiens (Human), UniProt P14867+Q8N1C3); assay: Radioligand binding assay, competition for [3H]RO7239181, γ1-containing GABAA subtype α1β2γ1; details: membranes of HEK293F cells, [3H]RO7239181 20-30 nM, mean of two determinations
Procedure: as §1, §2, §3, §4

[3] = target: human GABAA α1β3γ2 receptor (Homo sapiens (Human), UniProt P14867+P18507); assay: Radioligand binding assay, competition for [3H]Flumazenil, γ2-containing GABAA subtype α1β3γ2
Procedure: The affinity of compounds at GABAA γ2 subunit-containing receptors was measured by competition for [^3H]Flumazenil (81.1 Ci/mmol; Roche) binding to HEK293F cells expressing human (transiently transfected) receptors of composition α1β3γ2.
Harvested pellets from HEK293F cells expressing the different GABAA γ2 receptor subtypes were resuspended in Mannitol Buffer pH 7.2-7.4 and processed as described above for the cells expressing the GABAA γ1 subunit-containing receptors.
Assays were incubated to equilibrium for 1 hour at 4° C. and harvested onto GF/C uni-filters (Packard) by filtration using a Packard harvester and washing with ice-cold wash buffer (50 mM Tris; pH 7.5). After anhydrousing, filter-retained radioactivity was detected by liquid scintillation counting. Ki values were calculated using Excel-Fit (Microsoft) and are the means of two determinations.

[4] = Table 2, membranes of HEK293F cells, [3H]RO7239181, read-out: Ki h-GABAA α2β2γ1
[5] = membranes of HEK293F cells, [3H]RO7239181 20-30 nM, mean of two determinations, read-out: Ki h-GABAA α2β2γ1
[6] = HEK293F cell membranes, [3H]Flumazenil 1 nM, mean of two determinations, read-out: Ki h-GABAA α1β3γ2
[7] = read-out: Ki h-GABAA α2β2γ1, Table 2, membranes of HEK293F cells, [3H]RO7239181

## CNC(=O)c1cn2c(nc1=O)[C@H](C)N=C(c1c(F)cccc1F)c1c-2ccc(C(F)(F)F)c1Cl [Example 27, (5S)-8-chloro-7-(2,6-difluorophenyl)-N,5-dimethyl-3-oxo-9-(trifluoromethyl)-5H-pyrimido[1,2-a][1,4]benzodiazepine-2-carboxamide]
[1]
  γ2/γ1 Selectivity Ratio: 292.9
  LogSel: 2.47
[1]; [4]
  Ki: 30.8 nM
[1]; [5]
  Ki: 30.8 nM
[2]
  Ki: 67.8 nM
[3]; [6]
  Ki: 9010 nM

## Cc1cn2c(nc1=O)[C@H](C)N=C(c1c(F)cccc1F)c1c-2ccc(C(F)(F)F)c1Cl [Example 9, (5S)-8-chloro-7-(2,6-difluorophenyl)-2,5-dimethyl-9-(trifluoromethyl)-5H-pyrimido[1,2-a][1,4]benzodiazepin-3-one]
[1]
  Ki: 28.4 nM
  γ2/γ1 Selectivity Ratio: 209.4
  LogSel: 2.32
[1]; [7]
  Ki: 28.4 nM
[2]
  Ki: 98.1 nM
[3]
  Ki: 5950 nM

## C[C@@H]1N=C(c2c(F)cccc2F)c2c(ccc(C(F)(F)F)c2Cl)-n2cc(C(=O)NC3CC3)c(=O)nc21 [Example 28, (5S)-8-chloro-N-cyclopropyl-7-(2,6-difluorophenyl)-5-methyl-3-oxo-9-(trifluoromethyl)-5H-pyrimido[1,2-a][1,4]benzodiazepine-2-carboxamide]
[1]
  γ2/γ1 Selectivity Ratio: 338.4
  LogSel: 2.53
[1]; [4]
  Ki: 33 nM
[1]; [5]
  Ki: 33 nM
[3]; [6]
  Ki: 11200 nM

## CCO/C=C/c1cn2c(nc1=O)[C@H](C)N=C(c1c(F)cccc1F)c1c-2ccc(C(F)(F)F)c1Cl [Example 18, (5S)-8-chloro-7-(2,6-difluorophenyl)-2-[(E)-2-ethoxyvinyl]-5-methyl-9-(trifluoromethyl)-5H-pyrimido[1,2-a][1,4]benzodiazepin-3-one]
[1]
  γ2/γ1 Selectivity Ratio: 104.6
  LogSel: 2.02
[1]; [4]
  Ki: 60.6 nM
[1]; [5]
  Ki: 60.6 nM
[3]; [6]
  Ki: 6340 nM

## C[C@@H]1N=C(c2c(F)cccc2F)c2c(ccc(C(F)(F)F)c2Cl)-n2ccc(=O)nc21 [Example 10, (5S)-8-chloro-7-(2,6-difluorophenyl)-5-methyl-9-(trifluoromethyl)-5H-pyrimido[1,2-a][1,4]benzodiazepin-3-one]
[1]
  Ki: 54.6 nM
  γ2/γ1 Selectivity Ratio: 112.1
  LogSel: 2.05
[1]; [7]
  Ki: 54.6 nM
[2]
  Ki: 159 nM
[3]
  Ki: 6120 nM

## C[C@@H]1N=C(c2c(F)cccc2F)c2c(ccc(Br)c2Cl)-n2ccc(=O)nc21 [Example 13, (5S)-9-bromo-8-chloro-7-(2,6-difluorophenyl)-5-methyl-5H-pyrimido[1,2-a][1,4]benzodiazepin-3-one]
[1]
  Ki: 11.4 nM
  γ2/γ1 Selectivity Ratio: 53.3
  LogSel: 1.73
[1]; [7]
  Ki: 11.4 nM
[2]
  Ki: 17.6 nM
[3]
  Ki: 607 nM

## CCOCCc1cn2c(nc1=O)CN=C(c1c(F)cccc1F)c1c-2ccc(Cl)c1Cl [Example 24, 8,9-dichloro-7-(2,6-difluorophenyl)-2-(2-ethoxyethyl)-5H-pyrimido[1,2-a][1,4]benzodiazepin-3-one]
[1]
  γ2/γ1 Selectivity Ratio: 60.1
  LogSel: 1.78
[1]; [4]
  Ki: 30.3 nM
[1]; [5]
  Ki: 30.3 nM
[3]; [6]
  Ki: 1820 nM

## CCO/C=C/c1cn2c(nc1=O)CN=C(c1c(F)cccc1F)c1c-2ccc(C(F)(F)F)c1Cl [Example 25, 8-chloro-7-(2,6-difluorophenyl)-2-[(E)-2-ethoxyvinyl]-9-(trifluoromethyl)-5H-pyrimido[1,2-a][1,4]benzodiazepin-3-one]
[1]
  γ2/γ1 Selectivity Ratio: 306.4
  LogSel: 2.49
[1]; [4]
  Ki: 47.9 nM
[1]; [5]
  Ki: 47.9 nM
[3]; [6]
  Ki: 14700 nM

## CCOCCc1cn2c(nc1=O)[C@H](C)N=C(c1c(F)cccc1F)c1c-2ccc(Cl)c1Cl [Example 21, (5S)-8,9-dichloro-7-(2,6-difluorophenyl)-2-(2-ethoxyethyl)-5-methyl-5H-pyrimido[1,2-a][1,4]benzodiazepin-3-one]
[1]
  γ2/γ1 Selectivity Ratio: 61.6
  LogSel: 1.79
[1]; [4]
  Ki: 23.3 nM
[1]; [5]
  Ki: 23.3 nM
[3]; [6]
  Ki: 1440 nM

## CCc1cn2c(nc1=O)[C@H](C)N=C(c1c(F)cccc1F)c1c-2ccc(C(F)(F)F)c1Cl [Example 11, (5S)-8-chloro-7-(2,6-difluorophenyl)-2-ethyl-5-methyl-9-(trifluoromethyl)-5H-pyrimido[1,2-a][1,4]benzodiazepin-3-one]
[1]
  Ki: 40.1 nM
  γ2/γ1 Selectivity Ratio: 151.9
  LogSel: 2.18
[1]; [7]
  Ki: 40.1 nM
[2]
  Ki: 167 nM
[3]
  Ki: 6090 nM

## CCO/C=C/c1cn2c(nc1=O)CN=C(c1c(F)cccc1F)c1c-2ccc(Cl)c1Cl [Example 22, 8,9-dichloro-7-(2,6-difluorophenyl)-2-[(E)-2-ethoxyvinyl]-5H-pyrimido[1,2-a][1,4]benzodiazepin-3-one]
[1]
  γ2/γ1 Selectivity Ratio: 73.8
  LogSel: 1.87
[1]; [4]
  Ki: 15.3 nM
[1]; [5]
  Ki: 15.3 nM
[3]; [6]
  Ki: 1130 nM

## CCO/C=C/c1cn2c(nc1=O)[C@H](C)N=C(c1c(F)cccc1F)c1c-2ccc(Cl)c1Cl [Example 19, (5S)-8,9-dichloro-7-(2,6-difluorophenyl)-2-[(E)-2-ethoxyvinyl]-5-methyl-5H-pyrimido[1,2-a][1,4]benzodiazepin-3-one]
[1]
  γ2/γ1 Selectivity Ratio: 48.4
  LogSel: 1.68
[1]; [4]
  Ki: 24.1 nM
[1]; [5]
  Ki: 24.1 nM
[3]; [6]
  Ki: 1170 nM

## CCOCCc1cn2c(nc1=O)CN=C(c1c(F)cccc1F)c1c-2ccc(C(F)(F)F)c1Cl [Example 26, 8-chloro-7-(2,6-difluorophenyl)-2-(2-ethoxyethyl)-9-(trifluoromethyl)-5H-pyrimido[1,2-a][1,4]benzodiazepin-3-one]
[1]
  γ2/γ1 Selectivity Ratio: 400.1
  LogSel: 2.60
[1]; [4]
  Ki: 75 nM
[1]; [5]
  Ki: 75 nM
[3]; [6]
  Ki: > 30000 nM

## O=c1ccn2c(n1)CN=C(c1c(F)cccc1F)c1c-2ccc(Cl)c1Cl [Example 2, 8,9-dichloro-7-(2,6-difluorophenyl)-5H-pyrimido[1,2-a][1,4]benzodiazepin-3-one]
[1]
  Ki: 9.7 nM
  γ2/γ1 Selectivity Ratio: 47.7
  LogSel: 1.68
[1]; [7]
  Ki: 9.7 nM
[2]
  Ki: 8.6 nM
[3]
  Ki: 462 nM

## C[C@@H]1N=C(c2c(F)cccc2F)c2c(ccc(Cl)c2Cl)-n2ccc(=O)nc21 [Example 4, (5S)-8,9-dichloro-7-(2,6-difluorophenyl)-5-methyl-5H-pyrimido[1,2-a][1,4]benzodiazepin-3-one]
[1]
  Ki: 13.3 nM
  γ2/γ1 Selectivity Ratio: 68.7
  LogSel: 1.84
[1]; [7]
  Ki: 13.3 nM
[2]
  Ki: 25.6 nM
[3]
  Ki: 912 nM

## CCOCCc1cn2c(nc1=O)[C@H](C)N=C(c1c(F)cccc1F)c1c-2ccc(C(F)(F)F)c1Cl [Example 20, (5S)-8-chloro-7-(2,6-difluorophenyl)-2-(2-ethoxyethyl)-5-methyl-9-(trifluoromethyl)-5H-pyrimido[1,2-a][1,4]benzodiazepin-3-one]
[1]
  γ2/γ1 Selectivity Ratio: 88.1
  LogSel: 1.95
[1]; [4]
  Ki: 101 nM
[1]; [5]
  Ki: 101 nM
[3]; [6]
  Ki: 8880 nM
